Conditions: 0.1 mmol/l orthophosphate added to DUOSOL 4551 after the start of the precipitation, 40° C.
Source text: The pH at which a significant precipitation of calcium carbonate starts is a criterion for the stability of the solution and is subsequently called pHmax. […] The time at which the significant precipitation of calcium carbonate starts is subsequently called tG to represent the “time of germination”.
The stabilizing effect of a subsequent addition of phosphate or of a phosphate ester to existing dialysis solutions was examined using the rapid degassing method in a carousel setup. THz rapid degassing method in this variant allows an accelerated aging of dialysis solutions by degassing the CO2 from the bicarbonate buffer. The degassing of CO2 that normally occur slowly during the life of the products can be simulated within a few hours with this experiment setup.
Three separate experiments are carried out for each data point and the mean value is used.
That is, after a specific time period, 2.5 ml of a parent solution having 100 mmol/l glycerophosphate is added to the flasks containing 250 ml DUOSOL 4551, which results in a concentration of 1.0 mmol/l of glycerophosphate in the flask.

O=P(O)(O)O [orthophosphate]
dissolution of existing calcium carbonate precipitate: not observed | effect on precipitation of calcium carbonate: inhibiting effect

From patent US20220202940A1, “METHOD OF STABILIZING A DIALYSIS SOLUTION” (Fresenius Medical Care Deutschland GmbH, priority 2018, published 2022)
